Assay results reported in US7741435B2, “Substance P-saporin (SP-SAP) conjugates and methods of use thereof” (Advanced Targeting Systems, Inc., priority 1997, dated 2010).

Legend:
NK-1R = target: T1, NK-1R (Rattus norvegicus, UniProt P14600); experiment: Inhibition of radiolabeled SP binding to spinal cord membrane homogenates; details: iodinated SP 150 pM, 100 nM nonlabeled competitor, FIG. 4
T1 construct: from tissue; host or cells: membrane homogenate (spinal cord according to the assay title)
Procedure: Homogenate is prepared and binding performed as previously described (26). […] Membrane-bound label is separated from free label by centrifugation and measured with a gamma counter. Control is no addition of competitor.

[1] = test system: NK-1R-expressing spinal cord neurons; experiment: Internalization and cytotoxicity in primary cultures of spinal cord neurons; assay type: cell-based, rat; details: for morphological or cytotoxic changes in NK-1R-expressing and non-NK-1R, MAP-2 neurons: treatment alone
Procedure: SP-SAP internalization and cytotoxicity was examined in primary cultures of neonatal rat spinal cord neurons where approximately 15% of the neurons express NK-1R. All procedures were approved by Animal Care Committee at the VA Medical Center and the University of Minnesota. Neurons were cultured from the spinal cords of 18-day embryonic Holtzman rats (Harlan Sprague Dawley, Madison, Wis.). The whole spinal cord was dissected out of the rat and placed in 4° C. Puck's saline supplemented with 40 mM. glucose, 50 mM sucrose, and 10 mM Hepes (DISG media, pH 7.4). The spinal cords were then dissociated by trituration (15-20 times) through a small bore serological pipet. The resulting cell suspension was centrifuged at 4° C. for 5 min at 1500 rpm in a Sorvall RC-3B centrifuge (DuPont, Newtown, Conn.). The supernatant was removed and the pellet resuspended in Dulbecco's modified Eagle's medium (DMEM; Sigma Chemical Co., St. Louis, Mo.) plus 5% equine serum and 5% calf serum (v/v) (Hyclone, Logan, Utah). The cell suspension was plated on poly-L-ornithine coated 2-well chamber slides at a density of 100,000 cells/ml, and incubated at 37° C. with 9% CO2. After 4 days the mitotic inhibitors, 5-fluoro-2′-deoxyuridine and uridine were added. At 7 days the media was replaced with DMEM plus 10% equine serum (v/v). The cells were incubated unil 14 days post-culture with media changes every 4th day.
At day 14 post-culture, either saline or SP, SP-SAP conjugate or saporin (SAP) were added to a final concentration of 10^−7 M. The cells were incubated for 12 hr with the SP-SAP or SAP compounds at which time the compounds were removed from the culture and fresh media was added. The cultures were then allowed to continue until the desired timepoints (2 hr. 1, 4, 7, and 10 days) at which time the experiment was terminated and the cells were processed for immunohistochemistry by fixing for 20 min at 22° C. with 4% formalin in a phosphate buffered saline solution as previously described (2,39-42). […] Two hours following treatment with 10^−7 M SP-SAP, but not 10^−7 M SAP, NK-1R internalization was visualized using an antibody that recognized NK-1R (FIG. 8A) and intracellular accumulation of SAP was visualized using an antibody that recognized SAP (FIG. 8B)
In contrast, one day following treatment with SP alone the majority of NK-1R had recycled to the plasma membrane. Thus, within 24 hours after SP-SAP internalization these neurons could no longer efficiently recycle NK-1R back to the plasma membrane.

[2] = test system: NK-1R-expressing lamina I spinal cord neurons; experiment: Cytotoxicity of intrathecal infusion in the spinal cord (immunohistochemistry, confocal microscopy); details: for change in NK-1R immunoreactivity in lamina I, spinal segments L2-L5: intrathecal injection alone, any time point examined; for change in cell number, morphology or fluorescence level of any of the cell markers examined: treatment alone, 28 days
Procedure: Animals were anesthetized with an intramuscular injection of Ketamine (100 mg/kg) & Acepromazine (1 mg/kg) and placed in a stereotaxic frame. An 8.5-cm length of PE-10 tubing (inner diameter: 0.28 mm, outer diameter: 0.61 mm), serving as an inflow cannula, was inserted into the subarachnoid space via an incision in the atlanto-occipital membrane. The cannula terminated in the caudal region of the lumbar enlargement (approximately L4). […] 5 min after spinal superfusion, the cannula was carefully withdrawn and the wound closed with 3-0 silk sutures.
Immunohistochemistry and fluorescent confocal microscopy was performed as previously described (46) using an MRC-1024 Confocal Imaging System (Bio-Rad, Boston, Mass.) and an Olympus BH-2 microscope equipped for epifluorescence (Lake Success, N.Y.). For cell counts the spinal cords were cut in the sagittal plane whereas for immunofluorescence measurements the spinal cords were cut in either the sagittal or coronal plane. Both of the microscopes were set up as previously described (46,47). SPR was detected by a polyclonal rabbit anti-SPR antibody (1:5000; a kind gift from S. Vigna) raised against a 15 amino acid peptide sequence (SPR393-407) at the COOH-terminus of the rat SPR. […] Calbindin was detected by a monoclonal mouse anti-calbindin antibody (Sigma, 1:300). Microtubule-associated protein (MAP-2) was detected by a monoclonal mouse anti MAP-2 antibody (Sigma, 1:750). Choline acetyl transferase (CHAT) was detected by a monoclonal mouse anti-ChAT antibody (Chemicon, 1:500). Glial Fibrillary Acidic Protein was detected by a polyclonal rabbit anti-GFAP antibody (DAKO, 1:450). OX-42 was detected using a monoclonal mouse antibody (Chemicon, 1:2,000). Saporin was detected by a polyclonal goat anti-Saporin antibody (Advanced Targeting Systems, 1:350). […] All primary (overnight, 22° C.) and secondary (3 hours, 22° C.) antibodies were applied in cocktails with 1% goat serum and 0.3% Triton X-100 in PBS solution. Finally, the tissue sections were washed for 20 min in PBS (pH 7.4, 22_C), mounted onto gelatin-coated slides, and coverslipped using PBS-glycerine containing 1.0% p-phenylenediamine to reduce photobleaching.
To determine the number of immunofluorescent cell bodies (Table 1) the slides were viewed through a 1.0 cm^2 eyepiece grid, which was divided into one hundred 1 mm×1 mm units, and the total number of immunofluorescent cell bodies/unit area were counted. To calculate SPR immunofluorescence intensity, images of the 60 μm thick tissue sections were obtained with the BioRad MRC1024 laser scanning confocal fluorescent imaging system and analyzed using NIH Image 1.7.
Cell numbers and immunofluorescence levels were determined using confocal microscopy. […] All data points represent an n=6 and are expressed as +/−s.e.m. and significant differences calculated by a one-way ANOVA and Bonferroni comparisons (* denotes P<0.01).

[3] = test system: capsaicin-induced hyperalgesia in rats; experiment: Capsaicin-induced nocifensive behavior and mechanical and heat hyperalgesia after intrathecal pretreatment; assay type: in vivo, rat; details: compared to normal untreated animals, any time point
From the text: Measures of nocifensive behavior and hyperalgesia produced by intraplantar injection of capsaicin were obtained as described previously (48). Hyperalgesia is defined as an increase in withdrawal responses. The capsaicin model of hyperalgesia used in these experiments was chosen as it has been well characterized, it clearly produces hyperalgesia in humans and it is the only model of hyperalgesia that can be used in parallel animal and human studies. Capsaicin (Sigma Chemical Co., St. Louis, Mo.) was dissolved in a vehicle of 7.5% polyxyethylene sorbitan monooleate (Tween-80) and saline, and given into the plantar surface of one hindpaw. Each animal received one injection of […]. The duration of nocifensive behavior, defined as lifting and guarding the injected paw, was measured for the first five minutes after injection.
Withdrawal responses to heat were determined using a procedure previously described (49). […] The start of each trial activated a timer and withdrawal latencies to the nearest 0.1 sec were measured automatically by a photocell which terminated each trial and stopped the timer upon withdrawal of the paw. […]
To measure withdrawal responses to mechanical stimuli, rats were placed under a clear plastic cage on an elevated plastic mesh floor (1 cm^2 perforations). […] The frequency was determined for each hindpaw. […]

[4] = General observation after intrathecal infusion (body weight, food intake, behavior); assay type: in vivo, rat; details: for 28 days after intrathecal injection
[5] = L4 segment, 28 days post-treatment, intrathecal, n=6, ± s.e.m.

T1 sequence (P14600 whole entry): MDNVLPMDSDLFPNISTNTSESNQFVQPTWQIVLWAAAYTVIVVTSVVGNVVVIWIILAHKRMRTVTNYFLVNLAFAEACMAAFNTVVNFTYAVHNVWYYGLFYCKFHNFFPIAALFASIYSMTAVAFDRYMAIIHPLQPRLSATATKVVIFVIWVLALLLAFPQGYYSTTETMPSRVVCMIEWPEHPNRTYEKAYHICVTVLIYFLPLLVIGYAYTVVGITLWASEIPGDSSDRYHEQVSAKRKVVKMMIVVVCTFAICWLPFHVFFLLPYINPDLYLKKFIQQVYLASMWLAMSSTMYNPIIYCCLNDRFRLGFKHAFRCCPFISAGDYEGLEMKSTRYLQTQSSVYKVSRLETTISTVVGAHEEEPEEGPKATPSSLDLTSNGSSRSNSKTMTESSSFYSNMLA

Molecule | inhibition of iodinated SP binding (NK-1R) | morphological or cytotoxic changes in NK-1R-expressing and non-NK-1R, MAP-2 neurons ([1]; 10^−7 M) | change in NK-1R immunoreactivity in lamina I, spinal segments L2-L5 [2] | change in cell number, morphology or fluorescence level of any of the cell markers examined [2] | change in mechanical or thermal hyperalgesia, or nocifensive behavior produced by capsaicin [3] | changes in body weight, food intake, alertness, locomotion or grooming behavior [4] | other results
SAP: potent ribosome-inactivating protein isolated from the seeds of the plant Saponaria officinalis | little or no inhibition | no significant morphological or cytotoxic changes | no change | did not produce a significant change | no significant change | no detectable changes | Percent immunoreactive positive cells (saline = 100), SP (DRG) ([2]; L4 dorsal root ganglia, 28 days post-treatment, intrathecal, n=6, ± s.e.m.): 91 ± 11%; Percent immunofluorescence level, GFAP (lamina I) [2, 5]: 90 ± 13%; Percent immunofluorescence level, MAP-2 (lamina I) [2, 5]: 100 ± 14%; Percent immunofluorescence level, SP (laminae I and II) [2, 5]: 96 ± 3%; Percent immunofluorescence level, SPR (laminae I and II) [2, 5]: 95 ± 3%; Percent immunoreactive positive cells (saline = 100), Calbindin (laminae I and II) [2, 5]: 96 ± 7%; Percent immunoreactive positive cells (saline = 100), ChAT (motor neurons) [2, 5]: 116 ± 24%; Percent immunoreactive positive cells (saline = 100), SPR (lamina III and IV) [2, 5]: 79 ± 13%; Percent immunoreactive positive cells (saline = 100), SPR (laminae I and II) [2, 5]: 80 ± 16%; Percent immunofluorescence level, SPR (preganglionic sympathetic) ([2]; spinal segment T10, 28 days post-treatment, intrathecal, n=6, ± s.e.m.): 100 ± 9%
COc1ccccc1CC(=N)N1C[C@@H]2C(=O)CCC(c3ccccc3)(c3ccccc3)[C@@H]2C1 [RP67580] |  |  |  |  |  |  | block of SP- and SP-SAP-induced NK-1R internalization ([1]; 5×10^−6 M antagonist): blocked
RPKPQQFFGLM [SP] |  | no significant morphological or cytotoxic changes | no change | did not produce a significant change | no significant change | no detectable changes | NK-1R internalization ([1]; 10^−7 M, cultured spinal cord neurons): induced a rapid and similar degree of NK-1R internalization
neurokinin B | little or no inhibition |  |  |  |  |  | 
neurokinin A | significant interaction with the NK-1R |  |  |  |  |  | 
